# Reference: patent publication US20100150839A1, “Compositions and Methods for Modulating Cognitive Function” (Massachusetts Institute of Technology, priority 2005, published 2010)
# Where “and” joins values, the source holds several entries; their conditions need not be identical. Equal values may be shown once. Entries after “also recorded” stand apart in the source; their conditions may differ. Read-outs that look alike come from different tables or passages of the source.
# Assays:
# [1] = system: cultured primary hippocampal neurons; assay: Translation reporter assay: EGFP-αCaMKII 3′ UTR reporter mRNA transfected into neurons; format: cell-based, rat
# hippocampal brain slices = assay: Metabolic labeling of newly synthesized proteins in hippocampal brain slices; format: cell-based
# [2] = system: cultured hippocampal neurons; assay: Metabolic pulse labeling (35S-methionine incorporation) in cultured hippocampal neurons; format: cell-based, rat; conditions: for Increase in translation levels: hippocampal neuronal cultures, 35S metabolic labeling
# hippocampal slices = format: cell-based, mice
# phospho-S6 (S235/S236) = assay: Western analysis of S6 phosphorylation; format: cell-based, rat
# Protocol: (§1) Western analysis. Homogenates were prepared in cold RIPA buffer containing protease inhibitors and phosphatase inhibitors. Hippocampal neurons were homogenized 8 minutes after stimulation. Hippocampal slices were frozen on dry ice 10 minutes after tetanization, and the CA1 and CA3 fields were microdissected and homogenized. Western analysis was performed with rabbit polyclonal antisera against dually-phosphorylated ERK1/2, phospho-S6 (S235/S236), phospho-eIF4E (S209), and phospho-4E-BP (S65) (Cell Signaling). […] Therefore, since 4E-BP2 is the most abundantly expressed 4E-BP in the brain, it is likely that the results reflected 4E-BP2 levels and phosphorylation state. Blots were stripped and reprobed with antisera directed against total ERK1/2, S6, eIF4E, and 4E-BP (Cell Signaling). Results were quantified with ImageJ (NIH), calculated as the ratio of phosphorylated species to […], and then normalized to the untreated control condition Staining of total protein with Ponceau-S confirmed equal loading.
# phospho-eIF4E (S209) = assay: Western analysis of eIF4E phosphorylation; format: cell-based, rat
# Protocol: as §1
# [3] = system: dually-phosphorylated ERK1/2
# phospho-4E-BP (S65) = assay: Western analysis of 4E-BP phosphorylation; format: cell-based, rat
# Protocol: as §1
# [4] = hippocampal brain slices (FIG. 9), agonist 10 uM or 50 uM
# [5] = cultured hippocampal neurons (FIG. 10), agonist 10 uM or 50 uM
# [6] = hippocampal cultures, Western Blot
molecule,measurement,setting,value
NC(CCCP(=O)(O)O)C(=O)O (centres unmarked) [AP5],Translation of EGFP-αCaMKII-A20 reporter mRNA,"[1]; spontaneous neuronal activity, pretreatment with AP5 (100 μM) and DNQX (10 μM) together",significantly inhibited
CCCN1CCC[C@@H]2Cc3n[nH]cc3C[C@H]21 [quinpirole],Translation of endogenous neuronal mRNAs (metabolic labeling of newly synthesized proteins),hippocampal brain slices,stimulate translation
same,Translation of endogenous neuronal mRNAs (metabolic labeling of newly synthesized proteins),[2],stimulate translation
COc1ccc(C[C@H]2NC[C@H](O)[C@H]2OC(C)=O)cc1 [anisomycin],Additional decrement in L-LTP,hippocampal slices,did not produce any additional decrement in L-LTP
same,Kinetic pattern of L-LTP inhibition,hippocampal slices,progressive inhibition of L-LTP
same,L-LTP magnitude at 200 minutes,hippocampal slices,108±5% and 113±5%
Oc1cc2c(cc1O)C(c1ccccc1)CNCC2 (centres unmarked) [SKF38393],Translation of endogenous neuronal mRNAs (metabolic labeling of newly synthesized proteins),hippocampal brain slices; [4],stimulate translation
same,Translation of endogenous neuronal mRNAs (metabolic labeling of newly synthesized proteins),[2]; [5],stimulate translation
NCCc1ccc(O)c(O)c1 [dopamine],Increase in translation levels,[2],77%+/−26%
"OCC(O)c1ccc(O)c(O)c1 (centres unmarked) [DHPG, 3,4-Dihydroxyphenylglycol]",Increase in phosphorylation of S6,phospho-S6 (S235/S236); [6],52%+/−18%
same,Increase in phosphorylation of eIF4E,phospho-eIF4E (S209); [6],33%+/−3%
same,Increase in translation levels,[2],50%+/−20%
C[N+](C)(C)CCOC(N)=O [carbachol],Translation of endogenous neuronal mRNAs (metabolic labeling of newly synthesized proteins),hippocampal brain slices; [4],stimulate translation
same,Translation of endogenous neuronal mRNAs (metabolic labeling of newly synthesized proteins),[2]; [5],stimulate translation
N#CC(=C(/N)Sc1ccccc1N)/C(C#N)=C(\N)Sc1ccccc1N [U0126],ERK phosphorylation (phospho-ERK levels),[3],entirely abolished
same,Phosphorylation of ERK,[3],significantly reduced
same,Effect on DHPG-induced increase in phosphorylation of S6,phospho-S6 (S235/S236),blocked
same,Phosphorylation of S6,phospho-S6 (S235/S236),significantly inhibited; also recorded: significantly reduced
same,Translation of endogenous synaptodendritic mRNAs,synaptoneurosomes,significantly reduced
same,Effect of pretreatment on agonist-induced increases in neuronal protein synthesis,hippocampal brain slices,blocked
same,Effect of concurrent treatment on stimulated EGFP-αCaMKII-A20 mRNA translation,[1],significantly attenuated the effects of stimulation
same,Sensitivity of activity-induced reporter mRNA translation to inhibition,[1],persisted after mutation of the CPEs
same,"Translation of EGFP-αCaMKII-A20 reporter mRNA, combined pretreatment",[1],no additional inhibition
same,Effect on DHPG-induced increase in phosphorylation of eIF4E,phospho-eIF4E (S209),blocked
same,Phosphorylation of eIF4E,phospho-eIF4E (S209),significantly inhibited; also recorded: significantly reduced
same,Bulk translation of endogenous transcripts (35S-methionine incorporation),[2],strongly inhibited
same,Effect of pretreatment on agonist-induced increases in neuronal protein synthesis,[2],blocked
same,Effect on DHPG-induced increase in translation rates,[2],blocked
same,Effect on dopamine-induced increase in translation,[2],blocked
same,Effect on spaced depolarization-induced increase in translation,[2],blocked
same,Phosphorylation of 4E-BP,phospho-4E-BP (S65),significantly inhibited
O=[N+]([O-])c1cc2nc(O)c(O)nc2cc1[N+](=O)[O-] [DNQX],Translation of EGFP-αCaMKII-A20 reporter mRNA,[1],significantly inhibited
CC(C)NCC(O)c1ccc(O)c(O)c1 (centres unmarked) [isoproteronol],Translation of endogenous neuronal mRNAs (metabolic labeling of newly synthesized proteins),hippocampal brain slices; [4],stimulate translation
same,Translation of endogenous neuronal mRNAs (metabolic labeling of newly synthesized proteins),[2]; [5],stimulate translation
actinomycin-D,Additional decrement in L-LTP,hippocampal slices,did not produce any additional decrement in L-LTP
same,Kinetic pattern of L-LTP inhibition,hippocampal slices,"distinct, delayed pattern of inhibition"
same,L-LTP magnitude at 60 min. post-tetanization,hippocampal slices,157±4% and 157±3%
same,L-LTP magnitude at 200 minutes,hippocampal slices,107±4% and 122±5%
same,Time after onset of tetanization during which L-LTP magnitude remained indistinguishable from untreated slices,hippocampal slices,approximately 75 minutes
Sp-cAMPS,Effect on translation (in words),[2],increased translation
"BDNF: brain derived neurotrophic factor; activates trkB (protein, UniProt P23560 19-247, looked up) Neurotrophic factor BDNF …: APMKEANIRGQGGLAYPGVRTHGTLESVNGPKAGSRGLTSLADTFEHVIEELLDEDQKVRPNEENNKDADLYTSRVMLSSQVPLEPPLLFLLEEYKNYLDAANMSMRVRRHSDPARRGELSVCDSISEWVTAADKKTAVDMSGGTVTVLEKVPVSKGQLKQYFYETKCNPMGYTKEGCRGIDKRHWNSQCRTTQSYVRALTMDSKKRIGWRFIRIDTSCVCTLTIKRGR",Stimulation of EGFP-αCaMKII-A20 mRNA translation,"[1]; 100 ng/mL BDNF for 4 hours, 40 μM bicuculline for 8 min., after U0126 preincubation and wash",significant increases
